Measured values reported in publication PMC9329436, “Optimization of the 4-anilinoquin(az)oline scaffold as epidermal growth factor receptor (EGFR) inhibitors for chordoma utilizing a toxicology profiling assay platform” (Scientific Reports, 2022).
Read-outs that look alike come from different tables or passages of the source.

Legend:
Format in all cases: biochemical
[1] = target: T1, 320 wild-type protein kinases (Homo sapiens, UniProt Q09013); settings: DMPK, singlicate
T1 sequence (Q09013 1-629): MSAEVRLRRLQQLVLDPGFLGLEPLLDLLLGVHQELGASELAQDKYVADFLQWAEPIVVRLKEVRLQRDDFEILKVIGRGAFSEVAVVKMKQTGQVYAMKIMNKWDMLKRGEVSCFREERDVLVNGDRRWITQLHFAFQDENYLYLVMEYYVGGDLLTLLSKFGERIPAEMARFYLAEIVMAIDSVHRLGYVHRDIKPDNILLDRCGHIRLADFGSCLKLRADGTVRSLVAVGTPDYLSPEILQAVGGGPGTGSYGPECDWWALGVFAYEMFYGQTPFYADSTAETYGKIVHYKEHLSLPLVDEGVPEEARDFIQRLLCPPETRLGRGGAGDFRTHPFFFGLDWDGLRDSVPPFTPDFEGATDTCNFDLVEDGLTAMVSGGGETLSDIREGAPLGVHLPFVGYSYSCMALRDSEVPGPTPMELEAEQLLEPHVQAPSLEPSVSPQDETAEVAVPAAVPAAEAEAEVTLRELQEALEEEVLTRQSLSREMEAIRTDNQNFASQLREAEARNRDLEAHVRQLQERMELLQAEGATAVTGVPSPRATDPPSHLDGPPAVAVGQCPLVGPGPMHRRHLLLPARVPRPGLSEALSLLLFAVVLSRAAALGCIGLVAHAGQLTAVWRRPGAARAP
From the text: (§1) Table S4. Profiling of two compounds at two concentrations against 320 wild-type protein kinases; singlicate measurement; Residual activities (% of control).

[2] = target: 320 wild-type protein kinases (Homo sapiens, UniProt O60566); settings: BUB1B, singlicate
From the text: as §1

[3] = target: T2, 320 wild-type protein kinases (Homo sapiens, UniProt Q06418); settings: kinase TYRO3, singlicate
T2 sequence (Q06418 41-890): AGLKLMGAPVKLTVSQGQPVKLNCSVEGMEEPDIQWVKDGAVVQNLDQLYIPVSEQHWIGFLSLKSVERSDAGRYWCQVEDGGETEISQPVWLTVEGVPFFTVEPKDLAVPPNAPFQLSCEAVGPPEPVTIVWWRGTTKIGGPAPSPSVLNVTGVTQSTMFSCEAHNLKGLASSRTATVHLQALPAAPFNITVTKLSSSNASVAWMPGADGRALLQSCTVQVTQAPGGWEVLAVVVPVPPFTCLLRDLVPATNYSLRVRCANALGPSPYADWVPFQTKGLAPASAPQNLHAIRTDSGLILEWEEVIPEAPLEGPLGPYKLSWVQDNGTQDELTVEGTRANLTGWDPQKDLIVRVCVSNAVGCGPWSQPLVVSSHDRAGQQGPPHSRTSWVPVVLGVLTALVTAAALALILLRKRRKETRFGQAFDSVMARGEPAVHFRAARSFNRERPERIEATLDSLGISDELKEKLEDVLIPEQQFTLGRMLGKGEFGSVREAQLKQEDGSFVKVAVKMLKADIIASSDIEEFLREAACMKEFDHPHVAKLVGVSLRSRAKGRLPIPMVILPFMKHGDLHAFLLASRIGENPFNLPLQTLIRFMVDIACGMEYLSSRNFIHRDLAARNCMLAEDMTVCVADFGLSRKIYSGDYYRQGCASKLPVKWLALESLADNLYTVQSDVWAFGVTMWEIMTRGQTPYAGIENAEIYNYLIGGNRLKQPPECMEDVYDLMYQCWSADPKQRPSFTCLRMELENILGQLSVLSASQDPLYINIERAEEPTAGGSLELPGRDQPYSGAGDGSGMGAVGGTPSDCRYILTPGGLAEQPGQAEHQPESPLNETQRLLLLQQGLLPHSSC
From the text: as §1

[4] = target: 320 wild-type protein kinases (Homo sapiens, UniProt Q00526); settings: singlicate
From the text: as §1

[5] = target: 320 wild-type protein kinases (Homo sapiens, UniProt P15056); settings: B-RAF, singlicate
From the text: as §1

[6] = target: T3, 320 wild-type protein kinases (Homo sapiens, UniProt Q9NZJ5); settings: singlicate
T3 sequence (Q9NZJ5 30-1116): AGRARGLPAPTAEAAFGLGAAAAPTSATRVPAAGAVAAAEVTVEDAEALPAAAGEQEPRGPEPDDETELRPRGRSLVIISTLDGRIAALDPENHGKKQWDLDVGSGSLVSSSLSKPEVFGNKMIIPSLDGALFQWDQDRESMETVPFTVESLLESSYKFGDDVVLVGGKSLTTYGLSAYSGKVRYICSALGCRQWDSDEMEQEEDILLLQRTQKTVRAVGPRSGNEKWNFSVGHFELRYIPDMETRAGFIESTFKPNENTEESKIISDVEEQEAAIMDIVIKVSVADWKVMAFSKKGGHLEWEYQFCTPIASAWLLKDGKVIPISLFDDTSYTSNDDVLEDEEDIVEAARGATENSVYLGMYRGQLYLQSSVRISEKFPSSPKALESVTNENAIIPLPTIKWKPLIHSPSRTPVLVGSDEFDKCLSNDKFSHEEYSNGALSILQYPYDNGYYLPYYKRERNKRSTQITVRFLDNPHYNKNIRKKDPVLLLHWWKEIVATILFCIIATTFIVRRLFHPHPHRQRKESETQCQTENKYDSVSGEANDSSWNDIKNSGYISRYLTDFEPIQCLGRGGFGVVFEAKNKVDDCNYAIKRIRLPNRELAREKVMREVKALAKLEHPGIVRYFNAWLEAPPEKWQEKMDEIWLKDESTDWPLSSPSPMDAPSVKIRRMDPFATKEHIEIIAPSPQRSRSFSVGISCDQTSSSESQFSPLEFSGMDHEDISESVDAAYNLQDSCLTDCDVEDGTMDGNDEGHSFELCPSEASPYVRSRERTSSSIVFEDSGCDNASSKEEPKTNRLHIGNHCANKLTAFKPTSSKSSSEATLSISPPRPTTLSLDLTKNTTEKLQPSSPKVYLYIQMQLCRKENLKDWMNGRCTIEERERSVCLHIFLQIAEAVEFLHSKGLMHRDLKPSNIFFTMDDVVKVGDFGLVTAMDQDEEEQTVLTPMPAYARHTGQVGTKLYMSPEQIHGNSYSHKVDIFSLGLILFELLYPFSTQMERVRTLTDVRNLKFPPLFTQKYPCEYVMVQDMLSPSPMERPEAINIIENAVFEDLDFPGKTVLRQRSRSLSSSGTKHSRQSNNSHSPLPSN
From the text: as §1

Chain of 320 wild-type protein kinases (Homo sapiens, UniProt Q00526) (Q00526 whole entry): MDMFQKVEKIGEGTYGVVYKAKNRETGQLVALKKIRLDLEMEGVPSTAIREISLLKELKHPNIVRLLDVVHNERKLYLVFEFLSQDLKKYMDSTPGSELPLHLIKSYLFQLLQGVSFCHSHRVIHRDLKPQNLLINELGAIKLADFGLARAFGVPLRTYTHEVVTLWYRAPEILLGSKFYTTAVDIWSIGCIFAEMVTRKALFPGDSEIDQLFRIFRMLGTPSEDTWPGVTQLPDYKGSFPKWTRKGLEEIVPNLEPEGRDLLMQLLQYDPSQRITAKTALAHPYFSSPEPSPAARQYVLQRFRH
Chain of 320 wild-type protein kinases (Homo sapiens, UniProt P15056) (P15056 whole entry): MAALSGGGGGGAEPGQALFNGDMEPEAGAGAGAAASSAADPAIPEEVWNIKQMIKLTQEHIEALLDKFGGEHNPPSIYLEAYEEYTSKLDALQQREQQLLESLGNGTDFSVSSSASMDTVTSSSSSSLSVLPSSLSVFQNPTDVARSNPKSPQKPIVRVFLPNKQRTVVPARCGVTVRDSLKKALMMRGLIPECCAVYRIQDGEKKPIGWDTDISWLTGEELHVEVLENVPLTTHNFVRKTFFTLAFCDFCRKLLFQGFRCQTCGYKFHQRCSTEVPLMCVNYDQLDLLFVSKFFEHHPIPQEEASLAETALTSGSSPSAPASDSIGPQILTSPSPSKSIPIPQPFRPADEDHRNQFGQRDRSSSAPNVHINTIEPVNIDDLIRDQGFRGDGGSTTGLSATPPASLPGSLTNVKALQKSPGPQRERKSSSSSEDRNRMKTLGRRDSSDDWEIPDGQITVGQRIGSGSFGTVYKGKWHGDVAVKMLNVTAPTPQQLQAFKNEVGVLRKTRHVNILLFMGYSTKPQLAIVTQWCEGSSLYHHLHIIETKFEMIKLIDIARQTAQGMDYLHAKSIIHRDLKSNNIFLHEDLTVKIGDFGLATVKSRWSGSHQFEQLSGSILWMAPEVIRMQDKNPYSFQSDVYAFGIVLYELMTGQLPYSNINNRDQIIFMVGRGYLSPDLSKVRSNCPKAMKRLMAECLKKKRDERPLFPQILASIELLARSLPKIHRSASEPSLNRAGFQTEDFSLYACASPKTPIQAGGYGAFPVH
Chain of 320 wild-type protein kinases (Homo sapiens, UniProt O60566) (O60566 whole entry): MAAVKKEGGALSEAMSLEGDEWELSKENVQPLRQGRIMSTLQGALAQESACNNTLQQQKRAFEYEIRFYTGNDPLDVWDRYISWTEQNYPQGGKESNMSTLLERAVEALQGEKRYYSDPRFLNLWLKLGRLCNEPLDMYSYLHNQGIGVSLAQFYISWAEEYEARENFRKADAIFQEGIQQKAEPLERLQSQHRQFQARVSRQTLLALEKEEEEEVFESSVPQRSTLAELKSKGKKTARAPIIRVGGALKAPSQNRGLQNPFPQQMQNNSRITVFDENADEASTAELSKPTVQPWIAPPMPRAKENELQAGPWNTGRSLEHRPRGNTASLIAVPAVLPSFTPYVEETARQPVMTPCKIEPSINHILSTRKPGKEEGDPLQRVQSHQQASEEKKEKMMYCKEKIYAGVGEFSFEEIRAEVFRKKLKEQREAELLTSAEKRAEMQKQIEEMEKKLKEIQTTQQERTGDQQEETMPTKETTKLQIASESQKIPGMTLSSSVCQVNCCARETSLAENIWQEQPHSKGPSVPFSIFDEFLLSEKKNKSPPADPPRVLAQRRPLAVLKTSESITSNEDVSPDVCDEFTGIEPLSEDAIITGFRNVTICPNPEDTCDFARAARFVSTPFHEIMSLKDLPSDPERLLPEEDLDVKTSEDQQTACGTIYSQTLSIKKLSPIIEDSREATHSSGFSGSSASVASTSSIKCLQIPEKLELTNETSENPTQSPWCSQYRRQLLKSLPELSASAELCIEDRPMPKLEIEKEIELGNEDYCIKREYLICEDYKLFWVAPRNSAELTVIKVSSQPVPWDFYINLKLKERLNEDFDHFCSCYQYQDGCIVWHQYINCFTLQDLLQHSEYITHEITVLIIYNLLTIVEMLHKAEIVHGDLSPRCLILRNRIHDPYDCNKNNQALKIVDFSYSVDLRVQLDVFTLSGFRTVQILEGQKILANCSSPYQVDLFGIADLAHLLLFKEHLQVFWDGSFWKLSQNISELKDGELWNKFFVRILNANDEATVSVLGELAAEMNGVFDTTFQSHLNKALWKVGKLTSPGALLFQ

| Structure (SMILES) | Residual activity ([1]; 1.0E-06 M) | Residual activity ([1]; 1.0E-07 M) | Residual activity ([2]; 1.0E-06 M) | Residual activity ([2]; 1.0E-07 M) | Residual activity, TYRO3 ([3]; assay conc. 1.0E-06 M) | Residual activity, TYRO3 ([3]; assay conc. 1.0E-07 M) | Residual activity ([4]; CDK3/CycC, 1.0E-06 M) | Residual activity ([4]; CDK3/CycC, 1.0E-07 M) | Residual activity ([4]; CDK3/CycE1, 1.0E-06 M) | Residual activity ([4]; CDK3/CycE1, 1.0E-07 M) | Residual activity ([5]; 1.0E-06 M) | Residual activity ([5]; 1.0E-07 M) | Residual activity ([6]; EIF2AK3, 1.0E-06 M) | Residual activity ([6]; EIF2AK3, 1.0E-07 M) |
| --- | --- | --- | --- | --- | --- | --- | --- | --- | --- | --- | --- | --- | --- | --- |
| C#Cc1cc(Nc2ncnc3cc(I)ccc23)ccc1Cl [Compound 41] | 106 % of control | 121 % of control | 131 % of control | 122 % of control | 91 % of control | 100 % of control | 87 % of control | 90 % of control | 96 % of control | 115 % of control | 115 % of control | 145 % of control | 95 % of control | 86 % of control |
| C#Cc1cc(Nc2ncnc3cc(OC)c(OC)cc23)ccc1Cl [Compound 45] | 104 % of control | 103 % of control | 115 % of control | 137 % of control | 58 % of control | 93 % of control | 86 % of control | 92 % of control | 102 % of control | 117 % of control | 108 % of control | 112 % of control | 82 % of control | 90 % of control |
